Source: paper PMC4420518 (Protein Science : A Publication of the Protein Society, 2015)

What was measured:
[1] = target: TpsB4 POTRA1 domain (TpsB4-P1; residues 42-121) (P. aeruginosa); assay: NMR titration
[2] = system: TpsB4-P1 (TpsB4 POTRA1 domain); assay: 1H-15N HSQC NMR titration of 15N-labelled TpsB4-P1 with peptides; assay type: binding, P. aeruginosa

Substance	Kd [1]	binding to 15N-labelled TpsB4-P1 (CSPs in 1H-15N HSQC) ([2]; 200 μM TpsB4-P1, synthetic peptides, free N- and C-termini)	exchange regime of interaction with TpsB4 POTRA1 ([2]; NMR timescale)
TpsA4^79-95 peptide	1490 µM	–	–
QVFLVNPNGVLFGRGAQ [CupB5^80–96]	–	interacts with TpsB4‐P1 with a virtually identical pattern of CSPs	fast exchange
